Laboratory results taken from patent US7582789B2, “Ibandronate polymorph” (Hoffmann-La Roche Inc., priority 2005, dated 2009).

Tests used:
[1] = Solubility measurement of crystalline Ibandronate polymorphs in buffer solutions and water (titration); type: physicochemical; details: 25° C.
Procedure: The solubility of the individual crystalline Ibandronate polymorphs A and B was measured for various solutions. Approximately 10 g of the corresponding polymorph A or B were suspended in three different buffer solutions at pH 2, pH 4 (Titrisol-buffer, citrate/HCl), at pH 7 (methenamine buffer, HCl) or in water. The suspension was stirred for 24 hours at 25° C. and was kept additonally 24 hours without stirring at the same temperature. Solubility was calculated by titration according to the following method.
The residue was filtered, 2 ml of the filtrate taken, 5 ml of Titriplex III solution were added and diluted with water to 100 ml. 2 ml of this solution were added to approximately 0.1 ml of xylenol orange indicator and the pH was adjusted to 6.5 by adding small portions of methenamine buffer solution or 0.1 M hydrochloric acid. The solution is titrated immediately with Th-DCTA-xylenol orange complex until the color changes from yellow to reddish-violet. The endpoint is determined photometrically.

[2] = Relative thermodynamic stability of Ibandronate polymorphs; details: polymorph A compared with polymorph B

Row | SMILES | solubility ([1]; pH 2 Titrisol-buffer (citrate/HCl), stirred 24 h + 24 h without stirring) [mg/mL] | solubility ([1]; pH 4 Titrisol-buffer (citrate/HCl), stirred 24 h + 24 h without stirring) [mg/mL] | solubility ([1]; pH 7 methenamine buffer/HCl, stirred 24 h + 24 h without stirring) [mg/mL] | solubility ([1]; water, stirred 24 h + 24 h without stirring) [mg/mL] | thermodynamic stability relative to the other polymorph [2] | solubility ([1]; pH 2 Titrisol-buffer (citrate/HCl), under at least partial conversion to polymorph A) [mg/mL] | solubility ([1]; pH 4 Titrisol-buffer (citrate/HCl), under at least partial conversion to polymorph A) [mg/mL] | solubility ([1]; pH 7 methenamine buffer/HCl, under at least partial conversion to polymorph A) [mg/mL] | solubility ([1]; water, under at least partial conversion to polymorph A, listed as Ibandronate polymorph B, monosodium salt monohydrate) | solubility ([1]; water, under at least partial conversion to polymorph A, monosodium salt monohydrate) [mg/mL]
1 | CCCCCN(C)CCC(O)(P(=O)([O-])O)P(=O)(O)O.O.[Na+] [Polymorph A, 3-(N-methyl-N-pentyl) amino-1-hydroxypropane-1,1-diphosphonic acid monosodium salt monohydrate] | 280 | 276 | 292 | 278 | thermodynamically more stable | – | – | – | – | –
2 | CCCCCN(C)CCC(O)(P(=O)([O-])O)P(=O)(O)O.O.[Na+] [Polymorph B, 3-(N-methyl-N-pentyl) amino-1-hydroxypropane-1,1-diphosphonic acid monosodium salt monohydrate] | – | – | – | – | – | 274 | 278 | 299 | about 279 g/l | 279
